Source: patent publication US12116422B2, “Stapled peptide and use thereof in preparation of drug for treating pancreatic cancer” (Ruijin Hospital, Shanghai Jiao Tong University School of …, priority 2022, dated 2024)
“Also recorded” adds a separate entry of the source. Where two headings read alike, the source gives them in different places. Where a SMILES comes first, the peptide text is derived from it. Bridges are numbered along the chain shown (N, C = ends). Where no end group is shown, it is not given here. [ ]: non-standard residue; d: D form. R5 = C=CCCC[C@@](C)(N)C(=O)O

Columns and labels:
[1] = molecular target: T1, ANK domain of N1ICD (Homo sapiens, UniProt P46531); experiment: SPR binding to the ANK domain
Procedure: (§1) Surface plasmon resonance (SPR) analysis was conducted with a BlAcore T200 instrument (GE Healthcare, Pittsburgh, USA) to analyze the binding kinetics between N1DARP or SAH-mAH2-5 and a monitor peptide. Dissociation constants (KD) were calculated according to BIA evaluation software.
(§2) A tertiary structure simulating the N1DARP was analyzed online using I-TASSAR, a hierarchical server for protein structure prediction, and two α-helical peptides (AH1 and AH2) were identified (FIG. 1A, left side). […] Furthermore, in order to identify the essential amino acids that mediated the interaction between mAH2 and ANK, amino acid substitutions were conducted for each amino acid of mAH2 substituted with Ala, which were then subjected to SPR analysis. […] Based on the above evidence, mAH2 was then further modified by inserting molecular staples at 5 positions and denoted as stapled α-helices (SAHs).
Target sequence in this assay (P46531 1872-2126 limits assumed): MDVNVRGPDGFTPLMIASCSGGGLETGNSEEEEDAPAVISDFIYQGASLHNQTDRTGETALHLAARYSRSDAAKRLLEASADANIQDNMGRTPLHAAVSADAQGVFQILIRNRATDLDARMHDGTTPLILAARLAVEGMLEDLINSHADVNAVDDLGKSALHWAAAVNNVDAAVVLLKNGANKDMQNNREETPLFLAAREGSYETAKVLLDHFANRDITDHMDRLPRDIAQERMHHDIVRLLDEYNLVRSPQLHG

[2] = tested on: proteinase K, pepsin; experiment: Incubation with proteinase K and pepsin; format: in vitro ADME
Procedure: (§3) To examine the physicochemical stability of SAH-mAH2-5, mAH2, Pep2-mAH2, and SAH-mAH2-5 were incubated with proteinase K, pepsin, and mouse plasma.

[3] = Incubation with mouse plasma; format: in vitro ADME
Procedure: as §3

[4] = tested on: pancreatic cancer patient-derived organoids; experiment: Growth of pancreatic cancer patient-derived organoids (PDOs); format: cell-based, human
Source text: Four pancreatic cancer tissues were obtained from Ruijin Hospital Affiliated to Shanghai Jiaotong University School of Medicine for organoid culture. All enrolled patients met the following criteria: (i) pathologically diagnosed with pancreatic cancer; (ii) with relatively complete clinicopathological and follow-up data; (iii) without preoperative chemotherapy. Written informed consent was obtained from all relevant patients for the trial, and the study protocol was approved by the Ethics Committee of Ruijin Hospital.
Establishment of patient-derived pancreatic cancer organoids: the normal pancreatic tissues were excised, remaining pancreatic cancer tissues were minced, and enzymatically digested with collagenase (1 mg/ml to 2 mg/ml; Sigma-Aldrich, C9407) in a water bath at 37° C. for 1 h to 2 h. A resulting suspension was filtered through a 100 μm filter to retain tissue debris. The tissue debris was centrifuged at 530 g for 5 min to obtain organoid fractions and resuspended in an RPMI 1640 medium; a resulting suspension was mixed with a cold Matrigel (BD Biocoat, 356234, 10 mg/ml) and then solidified on a pre-warmed 24-well suspension plate at 37° C. for 20 min. After complete gelation, […] of an organoid medium was added to each well, and the plate was transferred to a 37° C./5% humidified CO2 incubator with 2% or ambient O2. […]

[5] = tested on: PDOX model of PDAC; experiment: PDO xenograft (PDOX) models in nude mice, tumor volume and survival; format: in vivo, Nude BALB/c mice; conditions: high USP10 and N1ICD expression; 1/2/3/4/5 mg/kg intravenously weekly
Procedure: All animal experimental procedures met institutional ethical requirements and were approved by the Animal Use and Care Committee of Shanghai Jiaotong University School of Medicine. Nude BALB/c mice (male, 4 to 6 weeks old) were purchased from the Chinese Academy of Sciences (Shanghai, China) and kept in a specific pathogen-free facility. For a subcutaneously-injected tumor model, the pancreatic cancer patient-derived organoids (5×10^6 cells/site) were injected subcutaneously into the right side of each mouse. From the first injection, a tumor volume was measured every 7 d using the formula: tumor volume (mm^3)=½(a×b^2), where “a” represented the longest longitudinal diameter and “b” represented the longest transverse diameter.
To evaluate the efficacy of SAH-mAH2-5 in vivo, Capan1 cells (1×10^7 cells/site) and four organoids (5×10^6 cells/site) were subcutaneously injected. One week after inoculation, SAH-CTRL/SAH-mAH2-5 (1/2/3/4/5 mg/kg) and GEM (50 mg/kg) were intravenously injected weekly at the indicated concentrations. Within 35 d from the first injection, the tumor volume was measured every 7 d, and the formula was: tumor volume (mm^3)=½(a×b^2). […]

[6] = molecular target: T2, USP10-N1ICD interaction (Homo sapiens, UniProt P46531); experiment: Immunoprecipitation/Western blot of the USP10-N1ICD interaction in Capan1 cells; format: cell-based
T2 construct: endogenous in cells; host or cells: Capan1
T2 sequence (P46531 1754-2555 limits assumed): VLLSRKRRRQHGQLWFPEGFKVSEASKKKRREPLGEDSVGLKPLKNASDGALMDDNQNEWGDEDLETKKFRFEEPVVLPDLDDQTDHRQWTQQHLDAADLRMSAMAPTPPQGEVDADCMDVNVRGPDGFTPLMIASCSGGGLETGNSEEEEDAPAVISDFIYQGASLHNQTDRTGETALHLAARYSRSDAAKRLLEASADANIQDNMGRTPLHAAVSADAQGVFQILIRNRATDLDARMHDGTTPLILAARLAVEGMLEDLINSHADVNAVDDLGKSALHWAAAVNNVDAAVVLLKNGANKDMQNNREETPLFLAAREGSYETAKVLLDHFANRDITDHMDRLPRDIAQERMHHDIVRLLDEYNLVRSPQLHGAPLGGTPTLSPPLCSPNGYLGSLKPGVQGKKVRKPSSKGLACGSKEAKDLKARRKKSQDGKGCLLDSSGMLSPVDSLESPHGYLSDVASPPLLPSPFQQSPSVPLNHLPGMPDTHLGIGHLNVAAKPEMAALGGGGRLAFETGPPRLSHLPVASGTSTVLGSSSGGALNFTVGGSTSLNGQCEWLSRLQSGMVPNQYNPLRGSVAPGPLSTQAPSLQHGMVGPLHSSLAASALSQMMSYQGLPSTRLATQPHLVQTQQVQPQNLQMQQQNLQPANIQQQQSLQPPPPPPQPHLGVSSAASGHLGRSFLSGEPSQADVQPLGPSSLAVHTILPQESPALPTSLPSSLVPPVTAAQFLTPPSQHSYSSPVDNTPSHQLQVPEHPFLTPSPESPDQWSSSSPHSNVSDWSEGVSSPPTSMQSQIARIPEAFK
Source text: (§4) The pancreatic cancer cell line Capan1 was purchased from the Cell Bank of the Chinese Academy of Sciences. The cells were STR-identified, negative for mycoplasma, and cultured in the RPMI 1640 supplemented with 10% fetal bovine serum and antibiotics.
(§5) A RIPA buffer was mixed with a cocktail of proteases and phosphatase inhibitors for lysing cell samples. Proteins were separated by 10% SDS-PAGE and transferred to a PVDF membrane. The images were generated by a Tanon 5200 chemiluminescence imaging system (Shanghai Tanon Life Science Instrument Co., Ltd.). The corresponding proteins were detected with primary antibodies and appropriate secondary antibodies. The primary antibodies were as follows: anti-USP10 (CST, #8501, 1:1000 for WB, 1:200 for IP), anti-β-actin (CST, #3700, 1:1000 for WB), and anti-N1ICD (CST, #4147, 1:1000 for WB, 1:200 for IP).
Immunoprecipitation analysis: pancreatic cancer cells transfected with indicated plasmid or lentivirus were collected and lysed for 10 min on ice. A resulting lysate was centrifuged to obtain a supernatant, which was then incubated with appropriate antibodies and protein A/G+agarose (Santa Cruz Biotechnology) overnight at 4° C. A resulting immune complex was washed 4 to 6 times and boiled in a 2×SDS sample buffer for 5 min. […] A resulting binding protein was dissolved in the SDS sample buffer and analyzed by immunoblotting.

[7] = tested on: N1ICD; experiment: Western blot of N1ICD expression, stability and ubiquitination in Capan1 cells; format: cell-based
Source text: as §4, §5
Immunoprecipitation analysis: pancreatic cancer cells transfected with indicated plasmid or lentivirus were collected and lysed for 10 min on ice. A resulting lysate was centrifuged to obtain a supernatant, which was then incubated with appropriate antibodies and protein A/G+agarose (Santa Cruz Biotechnology) overnight at 4° C. A resulting immune complex was washed 4 to 6 times and boiled in a 2×SDS sample buffer for 5 min. A resulting product was separated and co-precipitated using SDS-PAGE and blotted with specific antibodies. A resulting binding protein was dissolved in the SDS sample buffer and analyzed by immunoblotting.

[8] = In vivo safety in healthy mice (serum biochemistry, HE staining); conditions: 2 mg/kg intravenously weekly for 4 weeks
Procedure: To roughly assess the toxicity of SAH-mAH2-5, healthy BALB/c nude mice (5 weeks) were intravenously injected with SAH-CTRL or SAH-mAH2-5 (2 mg/kg) weekly for 4 weeks. The mice were sacrificed, and organs such as pancreas, lung, spleen, kidney, liver, and colon were extracted, which were then subjected to HE staining to screen morphological abnormalities. In addition, serum was collected for biochemical analysis of alanine aminotransferase (ALT), aspartate aminotransferase (AST), blood urea nitrogen (BUN), and creatinine (CR) by a chemical analyzer TBA-40FR (Toshiba Medical Systems, Japan).

[9] = molecular target: T1, ANK domain of N1ICD; experiment: KD (M)
Source text: Table printed on a drawing sheet, FIG. 1C
(§6) Head of the field: KD (M)
First copying reader's note: Brackets drawn over the sequences join the two S5 residues of each staple; the SAH-mAH2-5 row is printed in lighter (highlighted) type.
Target sequence in this assay (P46531 19-2555 limits assumed): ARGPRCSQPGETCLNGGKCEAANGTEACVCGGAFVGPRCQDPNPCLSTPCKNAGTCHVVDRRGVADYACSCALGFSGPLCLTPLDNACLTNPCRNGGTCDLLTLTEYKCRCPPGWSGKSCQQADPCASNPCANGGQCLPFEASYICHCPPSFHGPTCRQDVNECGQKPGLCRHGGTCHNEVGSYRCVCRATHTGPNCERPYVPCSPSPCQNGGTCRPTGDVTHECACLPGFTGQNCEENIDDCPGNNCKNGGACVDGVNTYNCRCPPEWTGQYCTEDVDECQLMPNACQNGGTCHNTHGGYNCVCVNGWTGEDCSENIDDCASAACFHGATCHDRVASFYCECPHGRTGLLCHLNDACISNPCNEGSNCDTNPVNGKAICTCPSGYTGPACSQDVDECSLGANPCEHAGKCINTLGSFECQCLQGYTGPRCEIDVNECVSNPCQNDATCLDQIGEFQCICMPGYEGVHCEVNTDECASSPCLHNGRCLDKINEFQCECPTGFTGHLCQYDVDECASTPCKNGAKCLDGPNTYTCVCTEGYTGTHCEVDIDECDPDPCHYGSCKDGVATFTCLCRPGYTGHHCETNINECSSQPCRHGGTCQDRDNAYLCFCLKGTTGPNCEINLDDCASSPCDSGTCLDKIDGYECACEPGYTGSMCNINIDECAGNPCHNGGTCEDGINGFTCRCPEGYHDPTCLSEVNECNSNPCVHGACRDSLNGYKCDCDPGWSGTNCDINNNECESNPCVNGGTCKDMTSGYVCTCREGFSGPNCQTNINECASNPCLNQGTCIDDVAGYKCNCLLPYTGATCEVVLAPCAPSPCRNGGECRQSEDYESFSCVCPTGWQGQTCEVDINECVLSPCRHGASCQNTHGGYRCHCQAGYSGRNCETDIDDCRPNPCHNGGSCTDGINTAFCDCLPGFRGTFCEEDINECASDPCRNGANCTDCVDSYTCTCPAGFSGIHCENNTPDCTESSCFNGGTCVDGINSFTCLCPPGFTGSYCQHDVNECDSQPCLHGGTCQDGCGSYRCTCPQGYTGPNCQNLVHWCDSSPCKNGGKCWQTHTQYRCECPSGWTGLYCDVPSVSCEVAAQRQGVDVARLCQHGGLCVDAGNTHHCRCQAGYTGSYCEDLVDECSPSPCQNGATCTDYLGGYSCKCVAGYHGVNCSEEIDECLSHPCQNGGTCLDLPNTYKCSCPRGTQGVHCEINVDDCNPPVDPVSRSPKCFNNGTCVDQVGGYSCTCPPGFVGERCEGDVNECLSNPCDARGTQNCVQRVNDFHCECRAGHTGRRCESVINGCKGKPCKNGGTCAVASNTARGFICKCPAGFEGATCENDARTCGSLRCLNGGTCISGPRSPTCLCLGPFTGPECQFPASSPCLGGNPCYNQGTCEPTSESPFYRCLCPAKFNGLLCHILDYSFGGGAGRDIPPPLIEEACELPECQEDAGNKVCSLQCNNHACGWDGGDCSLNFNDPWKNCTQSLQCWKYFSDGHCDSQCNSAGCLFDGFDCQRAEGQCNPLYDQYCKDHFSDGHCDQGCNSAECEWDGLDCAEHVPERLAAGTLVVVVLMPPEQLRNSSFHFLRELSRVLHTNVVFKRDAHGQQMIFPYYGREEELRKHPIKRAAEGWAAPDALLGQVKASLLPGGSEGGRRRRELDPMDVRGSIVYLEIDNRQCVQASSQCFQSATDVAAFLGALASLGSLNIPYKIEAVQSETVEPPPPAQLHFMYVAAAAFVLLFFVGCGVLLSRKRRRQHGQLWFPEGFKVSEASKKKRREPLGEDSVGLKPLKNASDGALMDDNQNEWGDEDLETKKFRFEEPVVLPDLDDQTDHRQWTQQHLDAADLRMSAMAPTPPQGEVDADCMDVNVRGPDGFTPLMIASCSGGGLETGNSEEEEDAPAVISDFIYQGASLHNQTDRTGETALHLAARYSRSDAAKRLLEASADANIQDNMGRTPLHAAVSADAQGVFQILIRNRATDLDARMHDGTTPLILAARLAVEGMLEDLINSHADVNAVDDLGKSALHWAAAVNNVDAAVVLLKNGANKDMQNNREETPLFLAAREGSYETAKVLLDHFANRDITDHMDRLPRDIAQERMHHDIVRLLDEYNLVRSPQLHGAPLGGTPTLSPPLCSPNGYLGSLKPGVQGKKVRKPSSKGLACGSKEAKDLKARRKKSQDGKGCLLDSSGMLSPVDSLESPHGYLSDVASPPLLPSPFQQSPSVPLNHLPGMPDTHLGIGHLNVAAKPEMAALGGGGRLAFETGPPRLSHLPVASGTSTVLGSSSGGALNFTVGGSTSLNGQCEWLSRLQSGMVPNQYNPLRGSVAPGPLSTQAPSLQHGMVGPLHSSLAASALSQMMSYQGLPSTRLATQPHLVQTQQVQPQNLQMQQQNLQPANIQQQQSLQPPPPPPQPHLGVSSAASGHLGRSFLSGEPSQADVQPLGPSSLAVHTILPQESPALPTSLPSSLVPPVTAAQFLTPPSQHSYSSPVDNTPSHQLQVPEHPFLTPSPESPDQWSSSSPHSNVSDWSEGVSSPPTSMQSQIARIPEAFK

[10] = tested on: ANK1; experiment: SPR binding to the α-helical regions ANK1 to ANK6
Procedure: as §1, §2

[11] = molecular target: T1, ANK domain of N1ICD; experiment: KD (M); remark: listed apart in the source
Source text: Table printed on a drawing sheet, FIG. 1D
as §6
Target sequence in this assay (P46531 19-2555 limits assumed): as above
First copying reader's note: Alanine scan of mAH2; the substituted A is printed in lighter type, and the rows mAH2-7, mAH2-9 and mAH2-14 are highlighted in lighter type.
Where the first naming reader finds the target: passage: A tertiary structure of the ANK domain of N1ICD was obtained from a PDB database

CC[C@H](C)[C@H](NC(=O)[C@H](CCCNC(=N)N)NC(=O)[C@H](CCCCN)NC(=O)[C@H](C)NC(=O)[C@@H](N)Cc1ccc(O)cc1)C(=O)N[C@]1(C)CCC/C=C/CCC[C@](C)(C(=O)N[C@@H](CC(C)C)C(=O)O)NC(=O)[C@H](CCCCN)NC(=O)[C@H](CO)NC(=O)[C@H](CC(C)C)NC(=O)[C@H](CC(C)C)NC(=O)[C@H](CCC(N)=O)NC(=O)[C@H](Cc2ccc(O)cc2)NC1=O [SAH-mAH2-5, stapled α-helix-modified α-helix 2-5] (H-YAKRI[R5]YQLLSK[R5]L-OH; staple (E) 6-13)
affinity for the ANK domain [1]: strongest binding ability; also recorded: highest affinity for ANK
resistance to proteases [2]: significantly enhanced the resistance to proteases
half-life in plasma [3]: prolonged the half-life in plasma
organoid growth inhibition ([4]; PDAC with high USP10 and N1ICD expression levels): significant organoid growth inhibition
inhibition effect ([4]; PDAC-1 and PDAC-3 models with relatively low USP10 and N1ICD expression levels): poor inhibition effect
median survival [5]: prolonged median survival
USP10-N1ICD interaction [6]: inhibit USP10-N1ICD interaction
N1ICD deubiquitination ([7]; Capan1 cells): inhibited
Notch signaling and N1ICD expression ([7]; Capan1 cells): inhibiting Notch signaling and its N1ICD expression in a time- and dose-dependent manner
N1ICD stability ([7]; Capan1 cells after cycloheximide (CHX)): inhibited N1ICD stability
morphology of major organs (HE staining) [8]: without affecting the liver, lungs, and kidneys and other major normal tissues and organs; also recorded: no morphological changes in major functional organs
serum ALT, AST, BUN and creatinine [8]: no abnormalities in the main indicators of liver and kidney functions

YAKRIFYQLLSKQL [mAH2, YAKRIFYQLLSKQL]
affinity for the ANK domain [1]: comparable affinity for ANK
Kd [9]: 60.4 nM

YAKRIFYQLLSKEL [AH2]
affinity for the ANK domain [1]: higher affinity to the ANK domain
interaction with ANK1 [10]: readily interacted with ANK1
Kd [11]: 60.4 nM

CC[C@H](C)[C@H](NC(=O)[C@H](CCCNC(=N)N)NC(=O)[C@H](CCCCN)NC(=O)[C@H](C)NC(=O)[C@@H](N)Cc1ccc(O)cc1)C(=O)N[C@]1(C)CCC/C=C\CCC[C@](C)(C(=O)N[C@@H](CO)C(=O)N[C@@H](CCCCN)C(=O)N[C@@H](CCC(N)=O)C(=O)N[C@@H](CC(C)C)C(=O)O)NC(=O)[C@H](CC(C)C)NC(=O)[C@H](CCC(N)=O)NC(=O)[C@H](Cc2ccc(O)cc2)NC1=O [SAH-mAH2-3] (H-YAKRI[R5]YQL[R5]SKQL-OH; staple (Z) 6-10)
Kd [9]: 1.05 nM
